This is an account of results in ChEMBL document CHEMBL1147474, “Synthesis of new 2'-beta-C-methyl related triciribine analogues as anti-HCV agents” (Bioorg Med Chem Lett, 2004).

Assay [1] relates to Huh-7. As to the kind of experiment: Compound was tested for its ability to inhibit hepatitis C viral RNA replication in Huh-7 cells (human hepatoma cells). The assay is classed as functional, cell-based.
In assay [2] the test system is Huh-7. As to the kind of experiment: Cytotoxicity using HCV replicon assay. The assay is classed as functional. The settings on record: Homo sapiens.

Each structure is given as a SMILES string.

Usually EC50 stands for the midpoint of the concentration-response curve. Read a low EC50 as higher potency in that assay. For orientation: CC50 means the concentration giving 50% cytotoxicity. For the molecule `C[C@@]1(O)[C@H](O)[C@@H](CO)O[C@H]1n1cc2c3c(ncnc31)N(CCO)N=C2N`, a half-maximal effect in the assay on Huh-7 [1] (EC50) was put at 200 µM. This molecule also gave a CC50 in the assay on Huh-7 [2] of more than 300 µM.
In the assay with Huh-7 [1], `CCCN1N=C(N)c2cn([C@@H]3O[C@H](CO)[C@@H](O)[C@@]3(C)O)c3ncnc1c23` showed an EC50 of 100 µM. The molecule further displayed a half-maximal cytotoxic concentration (CC50) in the assay with Huh-7 [2] of more than 300 µM.
The molecule `CC(=O)NC1=NN(CCO)c2ncnc3c2c1cn3[C@@H]1O[C@H](CO)[C@@H](O)[C@@]1(C)O` gave an EC50 in the assay with Huh-7 [1] of 100 µM. The CC50 with Huh-7 [2] amounted to 200 µM.
The corresponding values for `CCN1N=C(N)c2cn([C@@H]3O[C@H](CO)[C@@H](O)[C@H]3O)c3ncnc1c23` are 1 µM and 150 µM.
The corresponding values for `CN1N=C(N)c2cn([C@@H]3O[C@H](CO)[C@@H](O)[C@@]3(C)O)c3ncnc1c23` are 18 µM and more than 300 µM.
Turning to `NC1=NN(CCO)c2ncnc3c2c1cn3[C@@H]1O[C@H](CO)[C@@H](O)[C@H]1O`, in the assay with Huh-7 [1], the EC50 came to 20 µM. Also, in the assay with Huh-7 [2], the CC50 is more than 300 µM.
Consider `CC(=O)NC1=NN(C)c2ncnc3c2c1cn3[C@@H]1O[C@H](CO)[C@@H](O)[C@@]1(C)O`, for which, in the assay on Huh-7 [1], the concentration for a half-maximal effect (EC50) was 150 µM. For the same molecule, it took 300 µM to reach half-maximal cytotoxicity with Huh-7 [2] (CC50).
Regarding `CCCCN1N=C(N)c2cn([C@@H]3O[C@H](CO)[C@@H](O)[C@@]3(C)O)c3ncnc1c23`, a half-maximal effect with Huh-7 [1] (EC50) was put at 100 µM. In addition, the CC50 with Huh-7 [2] was more than 300 µM.
In the same order, the values of `CCN1N=C(N)c2cn([C@@H]3O[C@H](CO)[C@@H](O)[C@@]3(C)O)c3ncnc1c23` are 15 µM and more than 200 µM.
In the same order, the values of `NC1=NN(Cc2ccccc2)c2ncnc3c2c1cn3[C@@H]1O[C@H](CO)[C@@H](O)[C@H]1O` are 125 µM and more than 300 µM.
